In patent publication US10450260B2, “NO- and H2S-releasing compounds” (RESEARCH FOUNDATION OF THE CITY UNIVERSITY OF NEW YORK, priority 2011, dated 2019):
“And” between values parts separate entries of the source, which are not always exact repeats. Equal values may be shown once. Read-outs that look alike come from different tables or passages of the source. Blank lines part the entries; values can stand above or below the compound they belong to.

Legend:
ovine COX-1 = target: T1, ovine COX-1 (Ovis aries, UniProt P05979); test: COX-1 enzyme activity, colorimetric inhibitor screening kit; assay type: biochemical; conditions: for preference between COX-1 and COX-2 enzyme inhibition: ovine COX-1 vs COX-2
T1 construct: purchased Cayman Chemicals (Ann Arbor, Mich.)
T1 sequence (P05979 25-600): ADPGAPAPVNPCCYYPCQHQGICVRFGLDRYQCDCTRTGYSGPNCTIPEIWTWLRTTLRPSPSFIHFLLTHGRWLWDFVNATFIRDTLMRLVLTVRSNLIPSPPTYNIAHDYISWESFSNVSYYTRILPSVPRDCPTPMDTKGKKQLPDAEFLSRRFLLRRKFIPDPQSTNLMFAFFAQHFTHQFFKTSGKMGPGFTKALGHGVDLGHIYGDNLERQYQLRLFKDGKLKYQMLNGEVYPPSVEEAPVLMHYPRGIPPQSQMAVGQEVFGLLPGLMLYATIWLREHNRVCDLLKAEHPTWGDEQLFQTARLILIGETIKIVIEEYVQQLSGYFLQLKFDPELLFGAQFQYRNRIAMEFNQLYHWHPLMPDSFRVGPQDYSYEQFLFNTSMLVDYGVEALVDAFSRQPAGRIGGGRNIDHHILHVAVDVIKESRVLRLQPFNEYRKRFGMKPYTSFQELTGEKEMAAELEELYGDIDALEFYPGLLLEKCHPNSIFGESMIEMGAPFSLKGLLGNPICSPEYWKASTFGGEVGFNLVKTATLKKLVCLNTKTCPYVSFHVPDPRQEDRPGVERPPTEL

[1] = tested on: LNCAP human prostate cancer; test: MTT cell growth inhibition, LNCAP; assay type: cell-based; conditions: for IC50: Homo sapiens, LNCaP; for Ratio NSAID/NOSH-NSAID, LNCAP: fold-enhancement in potency over the parent compound
Method: (§1) HT-29, SW-480 and HCT-15 human colon adenocarcinoma, MIA PaCa-2 and BxPC-3 human pancreatic cancer, LNCAP human prostate cancer, A549 human lung cancer, MCF-7 (estrogen receptor positive), MDA-MB 231 and SK-BR-3 (estrogen receptor negative) human breast cancer, and Jurkats human leukemia cell lines were obtained from American Type Tissue Collection (Manassas, Va.). All cells lines were grown as monolayers except for the Jurkats which were grown in suspension. The pancreatic and breast cancer cells were grown in Dulbecco's modified Eagle's medium, the prostate, Jurkat, SW-480 and HCT-15 colon cells were grown in RPMI 1640 medium, the lung cells were grown in F-12 and the colon HT-29 cells were grown in McCoy 5A. All media were supplemented with 10% fetal calf serum (Invitrogen, Carlsbad, Calif.) penicillin (50 U/ml), and streptomycin (50 μg/ml) (Invitrogen, Carlsbad, Calif.). Cells were seeded on culture dishes at a density of 25×10^3 cells/cm^2 and incubated at 37° C. in 5% CO2 and 90% relative humidity. Single cell suspensions were obtained by trypsinization (0.05% trypsin/EDTA), and cells were counted using a hemocytometer. Viability was determined by the trypan blue dye exclusion method.
(§2) Cell growth inhibitory effect of NOSH compounds were measured using a colorimetric MTT assay kit (Roche, Indianapolis, Ind.). Cancer cells were plated in 96-well plates at a density of 50,000 cells/well. The cells were incubated for 24 h with different concentrations of NOSH compounds. After the indicated time, 10 μl of MTT dye (3-[4,5-dimethylthiazol-2-yl]-2,5-diphenyl tetrazolium bromide, 5 mg/ml in phosphate buffered saline), was added to each well, and the plates were incubated for 2 hours at 37° C. Then, the media was aspirated, and add 100 μl of the solubilization solution (10% SDS in 0.01 M HCl) was added to each well to solubilize the formant crystals. The absorbance of the plates was measured on an ELISA reader at a wavelength of 570 nm. Each sample was performed in triplicate, and the entire experiment was repeated three times.
(§3) HT-29, SW-480 and HCT-15 human colon adenocarcinoma, MIA PaCa-2 and BxPC-3 human pancreatic cancer, LNCAP human prostate cancer, A549 and H383 human lung cancer, MCF-7, MDA-MB 231 and SK-BR-3 human breast cancer and Jurkat T cell human leukemia cell lines were obtained from American Type Tissue Collection (Manassas, Va.) All cells lines were grown as monolayers except for the Jurkat T cells which were grown as suspension culture. The pancreatic and breast cancer cells were grown in Dulbecco's modified Eagle's medium, the prostate, Jurkat, SW-480 and HCT-15 colon cells were grown in RPMI 1640 medium, the lung cells were grown in F-12 and the colon HT-29 cells were grown in McCoy 5A. All media were supplemented with 10% fetal calf serum (Invitrogen, Carlsbad, Calif.) penicillin (50 U/ml), and streptomycin (50 μg/ml) (Invitrogen, Carlsbad, Calif.). Cells were seeded on culture dishes at a density of 25×10^3 cells/cm^2 and incubated at 37° C. in 5% CO2 and 90% relative humidity. Single cell suspensions were obtained by trypsinization (0.05% trypsin/EDTA), and cells were counted using a hemacytometer. The final DMSO concentration was adjusted in all media to 1%. Viability was determined by the trypan blue dye exclusion method.
(§4) Cell growth inhibitory effect of all NOSH-NSAIDs was measured using a colorimetric MTT assay kit (Roche, Indianapolis, Ind.). Cancer cells were plated in 96-well plates at a density of 30,000-50,000 cells/well depending on cell type. The cells were incubated for 24 hours with different concentrations of NOSH-NSAIDs. After the indicated time, 10 μL of MTT dye (3-[4,5-dimethylthiazol-2-yl]-2,5-diphenyl tetrazolium bromide, 5 mg/mL in phosphate buffered saline), was added to each well, and the plates were incubated for 2 hours at 37° C. Then, the media was aspirated, and 100 μL of the solubilization solution (10% SDS in 0.01 M HCl) was added to each well to solubilize the formant crystals. […]

[2] = tested on: MIA PaCa-2 human pancreatic cancer; test: MTT cell growth inhibition, MIA PaCa2; assay type: cell-based; conditions: for IC50: Homo sapiens, MIA PaCa-2; for Ratio NSAID/NOSH-NSAID, MIAPaCa2: fold-enhancement in potency over the parent compound
Method: as §1, §2, §3, §4

A549 human lung cancer = test: MTT cell growth inhibition, A549; assay type: cell-based; conditions: for IC50: Homo sapiens, A549; for Ratio NSAID/NOSH-NSAID, A549: fold-enhancement in potency over the parent compound
Method: as §1, §2, §3, §4

[3] = 24 hours, read-out: IC50 for cell growth inhibition, Pancreas MIA PaCa2
[4] = 24 hours, read-out: IC50 for cell growth inhibition, Lung A540
[5] = 24 hours (Table 7), read-out: IC50 for cell growth inhibition, Pancreas MIAPaCa2
[6] = 24 hours (Table 7), read-out: IC50 for cell growth inhibition, Lung A549

SMILES: CC(=O)Oc1ccccc1C(=O)O [ASA, aspirin, reference compound]
COX-1, % Inhibition (ovine COX-1; 1 mM (Table 6)): 53.2±1.8%
COX 1-% Inhibition (ovine COX-1; 1 mM, 15 min at 4° C. (Table 8)): 84.9% and 85.9%
COX 1-% Inhibition (ovine COX-1; 3 mM (Table 8)): 86.5%

SMILES: O=C(CCCO[N+](=O)[O-])Oc1ccccc1C(=O)Oc1ccc(-c2cc(=S)ss2)cc1 [NOSH-1, 4-(3-thioxo-3H-1,2-dithiol-5-yl)phenyl 2-((4-(nitrooxy)butanoyl)oxy)benzoate]
IC50 ([1]; 24 hours): 0.088 ± 0.008 µM
IC50 [2, 3]: 0.047 ± 0.005 µM
IC50 (A549 human lung cancer; [4]): 0.05 ± 0.007 µM
inhibition at 0.025 µM (ovine COX-1; 25 nM (Table 6)): 8.3 ± 1%
inhibition at 0.05 µM (ovine COX-1; 50 nM (Table 6)): 45.2 ± 2%
inhibition at 0.05 µM (ovine COX-1; 50 nM (Table 8)): 52.6%
COX 1-% Inhibition (ovine COX-1; 50 nM (Table 8), listed as NOSH-ASA, 0.05 µM): 47.6%
inhibition at 0.1 µM (ovine COX-1; 100 nM (Table 6)): 69.4 ± 2.2%
inhibition at 0.1 µM (ovine COX-1; 100 nM (Table 8)): 67.9%
preference between COX-1 and COX-2 enzyme inhibition (ovine COX-1): preferentially inhibits COX-1

IC50 ([1]; 24 hours): 0.1 ± 0.012 µM
IC50 [2, 3]: 0.102 ± 0.018 µM
IC50 (A549 human lung cancer; [4]): 0.12 ± 0.014 µM
SMILES: O=C(CCC(=O)Oc1ccccc1C(=O)Oc1ccc(-c2cc(=S)ss2)cc1)OCCCCO[N+](=O)[O-] [NOSH-2, 4-(nitrooxy)butyl (2-((4-(3-thioxo-3H-1,2-dithiol-5-yl)phenoxy)carbonyl)phenyl) succinate]

IC50 ([1]; 24 hours): 4.3 ± 0.212 µM
IC50 [2, 3]: 4.8 ± 0.322 µM
IC50 (A549 human lung cancer; [4]): 6.5 ± 0.224 µM
SMILES: NC(=S)c1ccc(OC(=O)c2ccccc2OC(=O)CCCO[N+](=O)[O-])cc1 [NOSH-3, 4-carbamothioylphenyl 2-((4-(nitrooxy)butanoyl)-oxy)benzoate]

IC50 ([1]; 24 hours): 0.5 ± 0.018 µM
IC50 [2, 3]: 0.8 ± 0.039 µM
IC50 (A549 human lung cancer; [4]): 0.3 ± 0.012 µM
SMILES: O=C(CCCC[C@@H]1CCSS1)Oc1ccccc1C(=O)OCCCCO[N+](=O)[O-] [NOSH-4, (R)-4-(nitrooxy)butyl 2-((5-(1,2-dithiolan-3-yl)pentanoyl)oxy)benzoate]

SMILES: CC(C(=O)Oc1ccc(-c2cc(=S)ss2)cc1)c1ccc2cc(OC(=O)CCCO[N+](=O)[O-])ccc2c1 (stereo not drawn) [NOSH-7, 6-(1-oxo-1-(4-(3-thioxo-3H-1,2-dithiol-5-yl)phenoxy)propan-2-yl)naphthalen-2-yl 4-(nitrooxy)butanoate]
IC50 ([1]; 24 hours (Table 7)): 0.13 µM
Ratio NSAID/NOSH-NSAID, LNCAP [1]: 23,000
IC50 [2, 5]: 0.095 µM
Ratio NSAID/NOSH-NSAID, MIAPaCa2 [2]: 33,684
IC50 (A549 human lung cancer; [6]): 0.1 µM
Ratio NSAID/NOSH-NSAID, A549 (A549 human lung cancer): 26,500
inhibition at 0.08 µM (ovine COX-1; 80 nM (Table 8)): 42.5%
COX 1-% Inhibition (ovine COX-1; 80 nM (Table 8), listed as NOSH-NAPROXEN, 0.08 µM): 44.4%
inhibition at 0.16 µM (ovine COX-1; 160 nM (Table 8)): 52.3%
preference between COX-1 and COX-2 enzyme inhibition (ovine COX-1): preferentially inhibited COX-1

SMILES: CC1=C(CC(=O)Oc2ccc(OC(=O)CCCO[N+](=O)[O-])c(C(=O)Oc3ccc(-c4cc(=S)ss4)cc3)c2)c2cc(F)ccc2/C1=C/c1ccc([S+](C)[O-])cc1 (stereo not drawn) [NOSH-8, (E)-4-(3-thioxo-3H-1,2-dithiol-5-yl)phenyl 5-(2-(5-fluoro-2-methyl-1-(4-(methylsulfinyl)benzylidene)-1H-inden-3-yl)acetoxy)-2-((4-(nitrooxy)butanoyl)oxy)benzoate]
IC50 ([1]; 24 hours (Table 7)): 0.09 µM
Ratio NSAID/NOSH-NSAID, LNCAP [1]: 9,000
IC50 [2, 5]: 0.098 µM
Ratio NSAID/NOSH-NSAID, MIAPaCa2 [2]: 8,081
IC50 (A549 human lung cancer; [6]): 0.18 µM
Ratio NSAID/NOSH-NSAID, A549 (A549 human lung cancer): 1,177
inhibition at 0.089 µM (ovine COX-1; 89 nM (Table 8)): 43.4%
COX 1-% Inhibition (ovine COX-1; 89 nM (Table 8), listed as NOSH-SULINDAC, 0.089 µM): 45.0%
preference between COX-1 and COX-2 enzyme inhibition (ovine COX-1): preferentially inhibited COX-1

SMILES: COc1ccc2cc([C@H](C)C(=O)O)ccc2c1 [naproxen, reference compound]
IC50 [2, 5]: 3200 µM
COX 1-% Inhibition (ovine COX-1; 3 mM (Table 8)): 80.1%
inhibition at 3000 µM (ovine COX-1; read-out: COX 1-% Inhibition, 3 mM (Table 8)): 84.7%
inhibition at 6000 µM (ovine COX-1; read-out: COX 1-% Inhibition, 6 mM (Table 8)): 91.9%

IC50 ([1]; 24 hours (Table 7)): 810 µM
IC50 [2, 5]: 792 µM
IC50 (A549 human lung cancer; [6]): 212 µM
inhibition at 800 µM (ovine COX-1; 800 μM (Table 8)): 84%
COX 1-% Inhibition (ovine COX-1; 800 μM (Table 8), 800 µM): 81.0%
inhibition at 1600 µM (ovine COX-1; 1600 μM (Table 8)): 89.1%
SMILES: CC1=C(CC(=O)O)c2cc(F)ccc2/C1=C\c1ccc([S+](C)[O-])cc1 (stereo not drawn) [sulindac, reference compound]
